In patent publication US20250134905A1, “USE OF SMALL-MOLECULE COMPOUND HOMOHARRINGTONINE IN MANUFACTURING DRUG FOR TREATING ACQUIRED IMMUNE DEFICIENCY SYNDROME” (Hangzhou City University, priority 2022, published 2025):

Test system: HIV-1
Assay: microbe, parasite or virus in culture
Settings: Human immunodeficiency virus 1, HEK293, read-out: EC50 in inhibiting the production of HIV-1

## COC(=O)C[C@](O)(CCCC(C)(C)O)C(=O)O[C@@H]1C(OC)=C[C@]23CCCN2CCc2cc4c(cc2[C@H]13)OCO4 [homoharringtonine]
  EC50: 8.57 nM
